Assay results from US10618890B2, “Benzimidazole sulfonamide derivatives as inverse agonists of retinoid-related orphan receptor gamma (ROR gamma (T))” (GALDERMA RESEARCH & DEVELOPMENT, priority 2014, dated 2020).
Like-named read-outs stand apart in the source and are kept apart here.

Columns and labels:
[1] = biological target: T1, hRORg (Homo sapiens, UniProt P51449); assay: GAL4-RORγ transactivation (luciferase reporter, HG5LN HeLa line); assay type: cell-based; conditions: HG5LN cells, 18 hours incubation, luciferase luminescence
T1 construct: expressed in transfected cells; host or cells: HG5LN (HeLa line with a GAL4-driven luciferase reporter)
T1 sequence (P51449 269-508 limits assumed): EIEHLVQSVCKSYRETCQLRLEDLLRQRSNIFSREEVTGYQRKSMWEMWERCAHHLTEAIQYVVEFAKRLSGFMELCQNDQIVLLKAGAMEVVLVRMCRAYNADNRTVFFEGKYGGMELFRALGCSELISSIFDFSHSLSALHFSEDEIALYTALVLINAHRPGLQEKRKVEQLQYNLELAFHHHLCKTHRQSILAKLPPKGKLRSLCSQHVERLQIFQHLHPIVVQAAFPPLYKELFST
Source text: GAL4-RORγ Transactivation
The RORγ transactivation model was developed from the line HG5LN, which is a HeLa line that stably expresses a luciferase reporter gene controlled by a pentamer of the GAL4 recognition domain of yeast and of a β-globin promoter. The HG5LN line was stably transfected by the DNA-binding domain (DBD) of GAL4 fused to the ROR gamma ligand-binding domain (LBD). Molecules that inhibit the ROR gamma constitutive activity reduce the luciferase expression, thus leading to a reduction in the emitted luminescence.
The cells are seeded in 384-well plates (5000 cells in 45 μL/well of culture medium containing 10% fetal calf serum) and incubated for 4 hours at 37° C., 5% CO2. 5 μL of the test molecules (compounds described in the tables described above) are then added to each well and the plates are incubated for 18 hours at a temperature of 37° C. under 5% of CO2. 20 μL of luciferase substrate (Promega) are added to each well and the luminescence emitted is read by a microplate reader.
The luminescence units (“RLU”) are normalized by positive controls (“POS” containing a saturated concentration of N-(2,2,2-trifluoroethyl)-N-[4-[2,2,2-trifluoro-1-hydroxy-1-(trifluoromethyl)ethyl]phenyl]benzenesulfonamide) and negative controls (“NEG” containing DMSO): % inhibition=((RLU-NEG)*100)/(POS-NEG). The IC50 values are calculated from a 4-parameter logistic model using the XLFit software (IDBS).

[2] = test system: IL-17A secretion by CD4+ cells; assay: IL-17A secretion by CD4+ cells (HTRF); assay type: cell-based; conditions: human CD4+ cells activated with anti-CD3 and anti-CD28, 4 days of incubation, IL-17A by HTRF, read-out: IC50 hCD4/IL17
Procedure: This model allows measurement of the effect of inhibitors on IL-17A secretion by CD4+ cells. The cells are frozen CD4+ cells (STEMCELL, #70026), isolated from peripheral human blood and activated with anti-CD3 and anti-CD28 antibodies. The amount of IL-17A secreted is measured by the TR-FRET (kit HTRF® Human Interleukin 17A (Cisbio, #64H17PEC)) technology.
The cells are rapidly thawed, resuspended in their culture medium (RPMI inactivated 10% FCS) supplemented with soluble anti-CD28 antibodies and seeded (100 000 cells/well) in 96-well plates precoated with anti-CD3 antibodies. The cells are then treated with the ranges of inhibitors to be tested (from 1000 nM to 0.05 nM, 0.1% DMSO). After 4 days of incubation, the HTRF signal is measured using a microplate reader (excitation=337 nm, λemission=620/665 nm). The ratios obtained (665/620) are normalized relative to the positive control (cells activated with anti-CD3 and anti-CD28, 0.1% DMSO). The IC50 values are calculated from a 4-parameter logistic model using the XLFit software (IDBS).

IC50 [1]	IC50 ([2]; Homo sapiens, 96 h)	IC50 [2]	Structure (SMILES)
> 1000 nM			CCc1ccc(N(CC(C)C)S(=O)(=O)c2ccc3c(c2)n(CC2CCOCC2)c(=O)n3C)cc1 [Compound 1, 1-methyl-2-oxo-3-(tetrahydropyran-4-ylmethyl)-2,3-dihydro-1H-benzimidazole-5-sulfonic acid (4-ethylphenyl)isobutylamide]
< 100 nM	< 100 nM		CCc1ccc(N(CC(C)C)S(=O)(=O)c2ccc3c(c2)[nH]c(=O)n3CC2CCOCC2)cc1 [Compound 2, 2-oxo-1-(tetrahydropyran-4-ylmethyl)-2,3-dihydro-1H-benzimidazole-5-sulfonic acid (4-ethylphenyl)isobutylamide]
100 to 1000 nM	< 100 nM		CCc1ccc(N(CC(C)C)S(=O)(=O)c2ccc3[nH]c(=O)n(CC4CCOCC4)c3c2)cc1 [Compound 3, 2-oxo-3-(tetrahydropyran-4-ylmethyl)-2,3-dihydro-1H-benzimidazole-5-sulfonic acid (4-ethylphenyl)isobutylamide]
< 100 nM	< 100 nM		CCc1ccc(N(CC(C)C)S(=O)(=O)c2ccc3c(c2)[nH]c(=O)n3CC2(C)CCOCC2)cc1 [Compound 4, 1-(4-methyltetrahydropyran-4-ylmethyl)-2-oxo-2,3-dihydro-1H-benzimidazole-5-sulfonic acid (4-ethylphenyl)isobutylamide]
< 100 nM	< 100 nM		CCc1ccc(N(CC(C)C)S(=O)(=O)c2ccc3c(c2)[nH]c(=O)n3CC2COC2)cc1 [Compound 7, 1-oxetan-3-ylmethyl-2-oxo-2,3-dihydro-1H-benzimidazole-5-sulfonic acid (4-ethylphenyl)isobutylamide]
> 1000 nM			CCc1ccc(N(CC(C)C)S(=O)(=O)c2ccc3c(c2)[nH]c(=O)n3C2CCOCC2)cc1 [Compound 11, 2-oxo-1-(tetrahydropyran-4-yl)-2,3-dihydro-1H-benzimidazole-5-sulfonic acid (4-ethylphenyl)isobutylamide]
< 100 nM	< 100 nM		CCc1ccc(N(C(CC)CC)S(=O)(=O)c2ccc3c(c2)[nH]c(=O)n3CC2CCOCC2)cc1 [Compound 16, 2-oxo-1-(tetrahydropyran-4-ylmethyl)-2,3-dihydro-1H-benzimidazole-5-sulfonic acid (4-ethylphenyl)(1-ethylpropyl)amide]
100 to 1000 nM		100 to 1000 nM	CCc1ccc(N(CC(C)C)S(=O)(=O)c2ccc3[nH]c(=O)n(CC4CCOCC4)c3c2)cc1 [Compound 21, 2-oxo-3-(tetrahydropyran-4-ylmethyl)-2,3-dihydro-1H-benzimidazole-5-sulfonic acid (4-ethylphenyl)isobutylamide]

Second part, the compound before the results:

Structure (SMILES)	IC50 [1]	IC50 ([2]; Homo sapiens, 96 h)	IC50 [2]
CCc1ccc(N(CC(C)C)S(=O)(=O)c2ccc3c(c2)[nH]c(=O)n3CC2(F)CCOCC2)cc1 [Compound 5, 1-(4-fluorotetrahydropyran-4-ylmethyl)-2-oxo-2,3-dihydro-1H-benzimidazole-5-sulfonic acid (4-ethylphenyl)isobutylamide]	< 100 nM	< 100 nM	
CCc1ccc(N(CC(C)C)S(=O)(=O)c2ccc3c(c2)[nH]c(=O)n3C[C@H]2[C@@H]3COC[C@@H]32)cc1 [Compound 6, 1-[(1R,5S,6S)-1-(3-oxabicyclo[3.1.0]hex-6-yl)methyl]-2-oxo-2,3-dihydro-1H-benzimidazole-5-sulfonic acid (4-ethylphenyl)isobutylamide]	< 100 nM		
CCc1ccc(N(CC(C)C)S(=O)(=O)c2ccc3c(c2)[nH]c(=O)n3CC2COC(=O)O2)cc1 (stereo not shown) [Compound 8, 2-oxo-1-(2-oxo[1,3]dioxolan-4-ylmethyl)-2,3-dihydro-1H-benzimidazole-5-sulfonic acid (4-ethylphenyl)isobutylamide]	< 100 nM		
CCc1ccc(N(CC(C)C)S(=O)(=O)c2ccc3c(c2)[nH]c(=O)n3CC2CNC(=O)O2)cc1 (stereo not shown) [Compound 9, 2-oxo-1-(2-oxooxazolidin-5-ylmethyl)-2,3-dihydro-1H-benzimidazole-5-sulfonic acid (4-ethylphenyl)isobutylamide]	> 1000 nM		
CCc1ccc(N(CC(C)C)S(=O)(=O)c2ccc3c(c2)[nH]c(=O)n3Cc2ccncc2)cc1 [Compound 10, 2-oxo-1-pyridin-4-ylmethyl-2,3-dihydro-1H-benzimidazole-5-sulfonic acid (4-ethylphenyl)isobutylamide]	100 to 1000 nM	< 100 nM	
CCc1ccc(N(CC(C)C)S(=O)(=O)c2ccc3c(c2)[nH]c(=O)n3C2CCN(C(=O)OC(C)(C)C)CC2)cc1 [Compound 12, tert butyl ester of 4-{5-[(4-ethylphenyl)isobutylsulfamoyl]-2-oxo-2,3-dihydrobenzimidazol-1-yl}piperidine-1-carboxylic acid]	> 1000 nM		
CCc1ccc(N(CC(C)C)S(=O)(=O)c2ccc3c(c2)[nH]c(=O)n3C2CCNCC2)cc1 [Compound 13, 2-oxo-1-piperidin-4-yl-2,3-dihydro-1H-benzimidazole-5-sulfonic acid (4-ethylphenyl)isobutylamide]	> 1000 nM		
CCc1ccc(N(CC(C)C)S(=O)(=O)c2ccc3c(c2)[nH]c(=O)n3C2CCN(S(C)(=O)=O)CC2)cc1 [Compound 14, 1-(1-methanesulfonylpiperidin-4-yl)-2-oxo-2,3-dihydro-1H-benzimidazole-5-sulfonic acid (4-ethylphenyl)isobutylamide]	> 1000 nM		
CCc1ccc(N(C2CCCC2)S(=O)(=O)c2ccc3c(c2)[nH]c(=O)n3CC2CCOCC2)cc1 [Compound 15, 2-oxo-1-(tetrahydropyran-4-ylmethyl)-2,3-dihydro-1H-benzimidazole-5-sulfonic acid (4-ethylphenyl)cyclopentylamide]	< 100 nM	< 100 nM	
Cc1ccc(N(CC(C)C)S(=O)(=O)c2ccc3c(c2)[nH]c(=O)n3CC2CCOCC2)c(C)c1 [Compound 17, 2-oxo-1-(tetrahydropyran-4-ylmethyl)-2,3-dihydro-1H-benzimidazole-5-sulfonic acid (2,4-dimethylphenyl)isobutylamide]	< 100 nM	< 100 nM	
Cc1ccc(N(C2CCCC2)S(=O)(=O)c2ccc3c(c2)[nH]c(=O)n3CC2CCOCC2)c(C)c1 [Compound 18, 2-oxo-1-(tetrahydropyran-4-ylmethyl)-2,3-dihydro-1H-benzimidazole-5-sulfonic acid cyclopentyl(2,4-dimethylphenyl)amide]	< 100 nM	< 100 nM	
CCC(CC)N(c1ccc(C)cc1C)S(=O)(=O)c1ccc2c(c1)[nH]c(=O)n2CC1CCOCC1 [Compound 19, 2-oxo-1-(tetrahydropyran-4-ylmethyl)-2,3-dihydro-1H-benzimidazole-5-sulfonic acid (2,4-dimethylphenyl)(1-ethylpropyl)amide]	< 100 nM	< 100 nM	
CCc1ccc(N(CC(C)C)S(=O)(=O)c2ccc3c(c2)[nH]c(=O)n3CC2CCS(=O)(=O)CC2)cc1 [Compound 20, 1-(1,1-dioxohexahydro-1λ^6-thiopyran-4-ylmethyl)-2-oxo-2,3-dihydro-1H-benzimidazole-5-sulfonic acid (4-ethylphenyl)isobutylamide]	< 100 nM	< 100 nM	
